Source: paper PMC11645656, “MRGPRX4 mediates phospho-drug associated pruritus in a humanized mouse model” (Science translational medicine, 2024)
Values joined by “and” are separate entries in the source; they are usually repeats but may differ in a detail not shown here. Equal values may be shown once.

What was measured:
[1] = tested on: NP2-X4+ mice (MRGPRX4 in Mrgpra3+ NP2 sensory neurons); test: Itch behavioral study (scratching bouts after subcutaneous nape injection) in NP2-X4+ mice; assay type: in vivo, mouse
[2] = tested on: HTLA cells; test: PRESTO-Tango β-arrestin recruitment assay, parental HTLA cells without MRGPRX4 (control, fig. S1); assay type: cell-based
Source text: Supplement NIHMS2038790-supplement-table.xlsx, sheet "fig. S1" | column: Concentration (M)

For `O=C1NC(=O)C(c2ccccc2)(c2ccccc2)N1` [Phenytoin], the “Scratching / itch behavior, NP2-X4+ mice vs WT littermates” value ([1]; 50 μl 10 mM nape injection, 30 min) was “no differences in itch behavior were detected”, the “Scratching bouts of individual animals” value ([1]; NP2-X4+, 30 min after injection of 50 μl 10 mM into the nape, each cell one mouse) was 6 and 0 and 19 and 1 (2×) and 14 and 16 and 21 and 12 and 20 and the “PRESTO-Tango response (fig. S1), single replicate” value (“PRESTO-Tango response (fig. S1)” below) ([2]; concentration 4.88281e-6 M) was 0.008545 and 0.005867 and 0.007953 and 0.006901 and 0.004547 and 0.009824. For the same molecule, the “PRESTO-Tango response (fig. S1)” value ([2]; concentration 9.76563e-6 M) was 0.00741 and 0.01006 and 0.006055 and 0.01246 and 0.001908 and 0.0161, the “PRESTO-Tango response (fig. S1)” value ([2]; concentration 1.95313e-5 M) was 0.004145 and 0.01453 and 0.008851 and 0.01106 and 0.007187 and 0.01768 and the “PRESTO-Tango response (fig. S1)” value ([2]; concentration 3.90625e-5 M) was 0.005318 and 0.007104 and 0.005862 and 0.009351 and 0.00878 and 0.001453. The “PRESTO-Tango response (fig. S1)” value ([2]; concentration 7.8125e-5 M) was 0.01242 and 0.005662 and 0.007299 and 0.009043 and 0.01323 and 0.004261, the “PRESTO-Tango response (fig. S1)” value ([2]; concentration 0.0003125 M) was 0.006045 and 0.003571 and 0.004631 and 0.006824 and 0.00263 and 0.004138 and the “PRESTO-Tango response (fig. S1)” value ([2]; concentration 0.000625 M) was 0.006823 and 0.004668 and 0.00481 and 0.009762 and 0.00692 and 0.01249. The “PRESTO-Tango response (fig. S1)” value ([2]; concentration 0.0025 M) was 0.006747 and 0.00542 and 0.005105 and 0.007273 and 0.002426 and 0.006102 and the “PRESTO-Tango response (fig. S1)” value ([2]; concentration 0.005 M) was 0.003966 and 0.00315 and 0.01104 and 0.009531 and 0.005922 and 0.01091.
